Results as given in ChEMBL document CHEMBL4808180, “Identification of 2,2-Dimethylbutanoic Acid (HST5040), a Clinical Development Candidate for the Treatment of Propionic Acidemia and Methylmalonic Acidemia” (J Med Chem, 2021).

Assays:
[1] = Reduction of methylmalonyl-CoA in human hepatocytes derived from methylmalonic acidemia pretreated for 30 mins followed by 13C-isoleucine addition and measured after 1 hr by MS/MS analysis; format: functional, cell-based; details: hepatocyte
[2] = Reduction of propionyl carnitine in human hepatocytes derived from propionic acidemia patient at 30 uM pretreated for 30 mins followed by 13C-isoleucine addition and measured after 1 hr by MS/MS analysis relative to control; format: functional, Hepatocyte; design: scale not given: the % may be the effect or the level left; details: time 90 min, 1.5 h
[3] = Reduction of acetyl-CoA in human hepatocytes derived from propionic acidemia patient pretreated for 30 mins followed by 13C-isoleucine addition and measured after 1 hr by MS/MS analysis; format: functional, cell-based; details: hepatocyte
[4] = Reduction of CoASH in human hepatocytes at 30 uM pretreated for 30 mins followed by 13C-isoleucine addition and measured after 1 hr by MS/MS analysis relative to control; format: functional, Hepatocyte; design: scale not given: the % may be the effect or the level left; details: time 90 min, 1.5 h
[5] = Drug metabolism in human hepatocytes assessed as formation of 2,2-dimethylbutanoic acid-CoA pretreated for 30 mins followed by 13C-isoleucine addition and measured after 1 hr by MS/MS analysis relative to control; format: ADME, cell-based; details: Hepatocyte
[6] = Drug metabolism in mini-pig hepatocytes assessed as formation of 2,2-dimethylbutanoic acid-CoA incubated for 1 hrs by MS/MS analysis; format: ADME, cell-based, Sus scrofa domesticus; details: Sus scrofa, Hepatocyte
OAT3 = target: T1, OAT3 (Homo sapiens, UniProt Q8TCC7); assay: Inhibition of human OAT3 assessed as reduction in OAT3-mediated tenofovir transport at 14900 uM relative to control; details: not told, probe tenofovir
T1 sequence (Q8TCC7 whole entry): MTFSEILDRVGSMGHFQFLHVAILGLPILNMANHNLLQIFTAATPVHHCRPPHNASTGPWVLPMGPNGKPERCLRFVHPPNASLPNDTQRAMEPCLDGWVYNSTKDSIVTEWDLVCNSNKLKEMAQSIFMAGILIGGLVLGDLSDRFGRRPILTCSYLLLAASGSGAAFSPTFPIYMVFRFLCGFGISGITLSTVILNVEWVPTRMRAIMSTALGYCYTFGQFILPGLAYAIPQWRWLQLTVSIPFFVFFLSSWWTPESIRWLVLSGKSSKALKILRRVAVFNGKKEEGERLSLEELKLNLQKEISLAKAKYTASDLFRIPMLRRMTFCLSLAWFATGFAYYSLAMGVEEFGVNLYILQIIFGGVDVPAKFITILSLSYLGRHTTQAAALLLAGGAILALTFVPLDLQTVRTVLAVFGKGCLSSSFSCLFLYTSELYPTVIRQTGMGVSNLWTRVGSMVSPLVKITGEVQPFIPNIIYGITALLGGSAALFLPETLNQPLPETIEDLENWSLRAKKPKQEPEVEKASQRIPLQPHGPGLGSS

[7] = Reduction of propionyl-CoA in human hepatocytes derived from methylmalonic acidemia at 30 uM pretreated for 30 mins followed by 13C-isoleucine addition and measured after 1 hr by MS/MS analysis relative to control; format: functional, Hepatocyte; design: scale not given: the % may be the effect or the level left; details: time 90 min, 1.5 h
[8] = Tmax in CD1 mouse at 100 mg/kg, po; format: ADME, organism-based; details: in vivo
[9] = Clearance in CD1 mouse at 30 mg/kg, iv; format: ADME, organism-based; details: in vivo
[10] = Half life in Sprague-Dawley rat at 200 mg/kg, po; format: ADME, organism-based; details: in vivo
[11] = Half life in Sprague-Dawley rat at 10 mg/kg, iv; format: ADME, organism-based; details: in vivo
[12] = Volume of distribution in Sprague-Dawley rat at 10 mg/kg, iv; format: ADME, organism-based; details: in vivo
[13] = AUC (0 to infinity) in Sprague-Dawley rat at 10 mg/kg, iv; format: ADME, organism-based; design: route intravenous, time infinity, dose 10 mg/kg; details: in vivo
[14] = Oral bioavailability in Sprague-Dawley rat at 200 mg/kg; format: ADME, organism-based; details: in vivo
[15] = Cmax in Gottingen minipig at 10 mg/kg, po using radiolabeled compound by quantitative whole-body autoradiography; format: ADME, organism-based, Sus scrofa domesticus; design: route oral, dose 10 mg/kg; details: pig, in vivo
[16] = Drug excretion in Gottingen minipig urine at 10 mg/kg, po using radiolabeled compound by quantitative whole-body autoradiography; format: ADME, organism-based, Sus scrofa domesticus; details: pig, in vivo, 96 h
[17] = Drug metabolism in Sprague-Dawley rat urine assessed as HST5040-glycine metabolite formation at 10 mg/kg administered as single dose by LC/MS analysis; format: ADME, organism-based; details: in vivo
[18] = target: ATP-dependent translocase ABCB1 (Homo sapiens, UniProt P08183); assay: Inhibition of human MDR1 assessed as reduction in NMQ transport at 24000 uM relative to control
ATP-dependent translocase ABCB1, sequence (P08183 whole entry): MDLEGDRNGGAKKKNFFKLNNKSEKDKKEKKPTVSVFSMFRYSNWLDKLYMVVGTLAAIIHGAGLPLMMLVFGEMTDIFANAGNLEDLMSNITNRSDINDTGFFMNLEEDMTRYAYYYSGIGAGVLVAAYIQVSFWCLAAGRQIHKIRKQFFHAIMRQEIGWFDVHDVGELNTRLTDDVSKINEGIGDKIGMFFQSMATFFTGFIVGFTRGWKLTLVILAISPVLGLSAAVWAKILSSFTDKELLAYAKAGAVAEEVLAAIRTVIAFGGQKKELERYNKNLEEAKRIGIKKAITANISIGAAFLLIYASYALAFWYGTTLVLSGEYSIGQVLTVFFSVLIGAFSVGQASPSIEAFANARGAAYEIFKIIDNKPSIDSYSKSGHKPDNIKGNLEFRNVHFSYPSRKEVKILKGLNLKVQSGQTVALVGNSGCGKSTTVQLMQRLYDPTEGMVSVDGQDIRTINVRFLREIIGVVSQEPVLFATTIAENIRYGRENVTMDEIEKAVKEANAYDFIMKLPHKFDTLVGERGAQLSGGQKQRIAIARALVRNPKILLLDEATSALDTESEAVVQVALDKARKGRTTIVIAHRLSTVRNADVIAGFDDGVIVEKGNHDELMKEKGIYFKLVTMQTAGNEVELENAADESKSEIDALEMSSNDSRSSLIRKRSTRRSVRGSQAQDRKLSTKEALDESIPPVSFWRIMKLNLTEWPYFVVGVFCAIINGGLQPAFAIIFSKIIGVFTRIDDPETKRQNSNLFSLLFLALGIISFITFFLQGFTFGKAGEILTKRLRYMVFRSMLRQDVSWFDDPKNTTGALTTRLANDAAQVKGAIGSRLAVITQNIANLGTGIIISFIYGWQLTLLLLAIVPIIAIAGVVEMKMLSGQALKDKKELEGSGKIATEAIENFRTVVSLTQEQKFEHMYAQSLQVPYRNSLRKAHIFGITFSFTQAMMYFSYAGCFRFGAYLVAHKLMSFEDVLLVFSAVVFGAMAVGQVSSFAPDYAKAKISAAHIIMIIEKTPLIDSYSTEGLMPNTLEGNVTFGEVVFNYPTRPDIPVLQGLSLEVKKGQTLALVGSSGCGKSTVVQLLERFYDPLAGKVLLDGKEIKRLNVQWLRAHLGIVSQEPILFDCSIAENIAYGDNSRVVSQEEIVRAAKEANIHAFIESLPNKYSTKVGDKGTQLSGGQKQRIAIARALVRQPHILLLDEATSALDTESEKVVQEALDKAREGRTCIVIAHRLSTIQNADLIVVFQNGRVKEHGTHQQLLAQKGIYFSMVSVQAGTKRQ

[19] = target: T2, Multidrug and toxin extrusion protein 1 (Homo sapiens, UniProt Q96FL8); assay: Inhibition of human MATE1 assessed as reduction in MATE1-mediated metformin transport at 14900 uM relative to control
T2 sequence (Q96FL8 whole entry): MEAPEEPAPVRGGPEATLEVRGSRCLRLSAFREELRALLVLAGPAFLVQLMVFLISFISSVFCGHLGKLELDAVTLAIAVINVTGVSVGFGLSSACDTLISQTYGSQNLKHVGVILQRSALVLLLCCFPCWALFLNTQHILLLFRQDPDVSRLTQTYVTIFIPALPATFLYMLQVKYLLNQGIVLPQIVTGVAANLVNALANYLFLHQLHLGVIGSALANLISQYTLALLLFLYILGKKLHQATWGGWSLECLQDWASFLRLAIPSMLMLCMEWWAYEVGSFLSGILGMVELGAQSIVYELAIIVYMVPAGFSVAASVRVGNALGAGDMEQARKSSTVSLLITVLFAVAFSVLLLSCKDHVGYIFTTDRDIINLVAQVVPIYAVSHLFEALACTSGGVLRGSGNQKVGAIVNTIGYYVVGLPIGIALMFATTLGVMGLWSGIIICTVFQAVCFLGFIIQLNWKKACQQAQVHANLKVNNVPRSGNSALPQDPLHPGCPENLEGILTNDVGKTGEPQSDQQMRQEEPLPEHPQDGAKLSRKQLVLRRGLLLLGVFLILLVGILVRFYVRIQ

[20] = Induction of toxicity in minipig assessed as increase in number of cells with cytoplasmic vacuoles in renal tubules at >=50 mg/kg/day; format: organism-based, Sus scrofa domesticus; details: pig, in vivo
[21] = Drug metabolism in minipig assessed as beta-oxidation by measuring phase1 metabolite formation at 10 mg/kg administered single dose using radiolabeled compound; format: ADME, organism-based, Sus scrofa domesticus; details: pig, in vivo

inhibition at 14900 µM (OAT3): 90.9% | Tmax [8]: 0.5 h | clearance [9]: 7.28 mL/min/kg | half-life [10]: 2.73 h | half-life [11]: 3.93 h | Vd [12]: 1.22 L/kg | AUC(0-inf) [13]: 9670 ng·h/mL | bioavailability [14]: 126% | Cmax [15]: 16100 ng/mL | Drug excretion [16]: 77.4% | Drug metabolism [17]: Metabolite_Detected | inhibition (INH) [18]: Not Active | Drug metabolism [21]: Metabolite_Notdetected
SMILES: CCC(C)(C)C(=O)O [DIMEBUTIC ACID]
EC50 [1]: 2 µM | Activity [2]: -69.4% | EC50 [3]: 2.3 µM | Activity [4]: -35.2% | EC50 [5]: 8.3 µM | EC50 [6]: 8.3 µM | Activity [7]: -74.2% | inhibition (INH) [19]: Not Active | Activity [20]: Toxic
